# Columns and labels:
# FGFR4 = FGFR4 (Homo sapiens, UniProt P22455); assay: FGFR4 Caliper Assay (in vitro biochemical kinase analysis of FGFR4); conditions: read-out: Enzymatic activity FGFR4 IC50
# Description: I. In Vitro Biochemical Kinase Analysis of FGFR4
# FGFR4 Caliper Assay was used in the present invention to determine the inhibitory activities of the compounds against FGFR4. The detailed experimental procedure was as follows.
# 2. A reaction system is a mixture solution of 50 mM HEPES, pH 7.5, 1 mM DTT, 0.02% Tween 20, 0.02% BSA, 0.6% DMSO, 10 mM beta glycerol phosphate and 10 μM sodium orthovanadate and 16 mM MgCl2.
# 3. The reaction system was incubated at 30° C. for 40 minutes.
# 4. The reaction was terminated by adding a stop solution (100 mM HEPES, pH 7.5, 5% DMSO, 0.1% Caliper coating reagent, 10 mM EDTA and 0.015% Brij35).
# 5. The culture plate with the terminated kinase reaction was transferred to the Caliper LC 3000 workstation to read the data, the phosphorylated and unphosphorylated peptides were separated by using the Caliper microfluid migration shift technique, and the analyte was transferred by allowing a constant buffer flow through the chip, the migration of the substrate peptide was monitored by the labeled fluorescent signal, and the kinase activity was calculated by using the amount of the phosphate-based peptide formed.
# 6. Finally, IC50 values were determined by non-linear regression analysis of percent inhibition at different compound concentrations.
# [1] = test system: Huh7 hepatocellular carcinoma cells; assay: FGFR4 cell proliferation experiment, Cell Titer Glo (CTG); assay type: cell-based; conditions: Homo sapiens, Huh-7, 72 h, HuH-7 cells, 3 days; for IC50: concentration leading to absolute half growth inhibition; for EC50: concentration leading to half maximal growth inhibition
# Description: II. FGFR4 Cell Proliferation Experiment
# Cell Titer Glo (CTG) experiment was used in the present invention to evaluate the functional effects of the compounds on cell proliferation. […] Compound-mediated inhibition of cell proliferation/survival was assessed by quantification of cellular ATP levels using CTG reagent (Promega, #G7573). The specific experimental procedure was as follows:
# 2. 10 μL of medium containing a compound concentration of 10 fold of its final test concentration was added;
# 3. The dose effect was evaluated by a 5-fold serial dilution of the test compound, starting from 10 μM.
# 4. After cells incubation for 3 days at 37° C. under 5% CO2, the effect of the inhibitor on cell proliferation was quantified after adding 50 μL of CTG and testing with luminescence.
# Chain of FGFR4 (P22455 22-802): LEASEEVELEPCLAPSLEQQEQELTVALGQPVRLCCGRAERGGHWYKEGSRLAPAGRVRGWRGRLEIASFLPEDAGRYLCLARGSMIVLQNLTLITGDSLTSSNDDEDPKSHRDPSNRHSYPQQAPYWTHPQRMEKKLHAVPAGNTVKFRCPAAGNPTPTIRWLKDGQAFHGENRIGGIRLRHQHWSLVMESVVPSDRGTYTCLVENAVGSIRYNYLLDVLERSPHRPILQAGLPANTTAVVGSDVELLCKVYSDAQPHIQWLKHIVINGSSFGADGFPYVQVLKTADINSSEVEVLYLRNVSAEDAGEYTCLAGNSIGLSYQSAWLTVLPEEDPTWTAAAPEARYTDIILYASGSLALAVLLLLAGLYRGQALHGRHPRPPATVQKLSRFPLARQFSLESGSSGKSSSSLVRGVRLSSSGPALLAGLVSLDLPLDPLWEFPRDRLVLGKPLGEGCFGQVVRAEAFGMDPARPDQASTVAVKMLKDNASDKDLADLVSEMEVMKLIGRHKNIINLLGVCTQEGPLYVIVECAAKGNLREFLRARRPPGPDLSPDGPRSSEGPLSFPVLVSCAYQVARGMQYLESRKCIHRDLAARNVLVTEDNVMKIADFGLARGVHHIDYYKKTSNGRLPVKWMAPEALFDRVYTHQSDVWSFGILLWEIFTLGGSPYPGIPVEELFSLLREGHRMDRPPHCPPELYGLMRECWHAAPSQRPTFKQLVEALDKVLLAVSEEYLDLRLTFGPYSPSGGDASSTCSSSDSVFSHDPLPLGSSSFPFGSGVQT
Compound,IC50 (FGFR4) [µM],IC50 [1] [µM],EC50 [1] [µM]
"C=CC(=O)N[C@H]1COC[C@H]1Nc1ncc2cc(-c3c(Cl)c(OC)cc(OC)c3Cl)nc(NCc3cnn(C)c3)c2n1 [Example 459, N-((3R,4S)-4-((6-(2,6-dichloro-3,5-di-methoxyphenyl)-8-(((1-methyl-1H-pyrazol-4-yl)methyl)amino)pyrido[3,4-d]pyrimidin-2-yl)amino)tetrahydro-furan-3-yl)acrylamide]",0.0173,0.058,0.0238
"C=CC(=O)N[C@H]1COC[C@H]1Nc1ncc2cc(-c3cc(OC)cc(OC)c3Cl)nc(NCC3CC3)c2n1 [Example 475, N-((3R,4S)-4-((6-(2-chloro-3,5-dimeth-oxyphenyl)-8-((cyclopropylmethyl)a-mino)pyrido[3,4-d]pyrimidin-2-yl)a-mino)tetrahydrofuran-3-yl)acrylamide]",0.062,0.678,0.132
"C=CC(=O)N[C@H]1COC[C@H]1Nc1ncc2cc(-c3c(Cl)c(OC)cc(OC)c3Cl)nc(OCC3CC3)c2n1 [Example 498, N-((3R,4S)-4-((8-(cyclopropylmethoxy)-6-(2,6-dichloro-3,5-dimethoxyphen-nyl)pyrido[3,4-d]pyrimidin-2-yl)amino)tetrahydrofuran-3-yl)acrylamide]",8.8,> 10,2.39
"C=CC(=O)N[C@H]1CCOC[C@H]1Nc1ncc2cc(-c3c(Cl)c(OC)cc(OC)c3Cl)nc(NCC3CC3)c2n1 [Example 501, N-((3S,4S)-3-((8-((cyclopropylmeth-yl)amino)-6-(2,6-dichloro-3,5-dimeth-oxyphenyl)pyrido[3,4-d]pyrimidin-2-yl)amino)tetrahydro-2H-pyran-4-yl)acrylamide]",0.0157,0.0499,0.0178
"C=CC(=O)N[C@H]1COC[C@H]1Nc1ncc2cc(-c3c(Cl)c(OC)cc(OC)c3Cl)nc(C)c2n1 [Example 606, N-((3R,4S)-4-((6-(2,6-dichloro-3,5-di-methoxyphenyl)-8-methylpyrido[3,4-d]pyrimidin-2-yl)amino)tetrahydro-furan-3-yl)acrylamide]",0.0234,0.0411,0.0257
"C=CC(=O)N[C@H]1COC[C@H]1Nc1ncc2cc(-c3c(Cl)c(OC)cc(OC)c3Cl)nc(-c3cnn(C)c3)c2n1 [Example 629, N-((3R,4S)-4-((6-(2,6-dichloro-3,5-di-methoxyphenyl)-8-(1-methyl-1H-pyrazol-4-yl)pyrido[3,4-d]pyrimidin-2-yl)amino)tetrahydrofuran-3-yl)acryl-amide]",0.0029,0.004,0.0026
"C=CC(=O)N[C@H]1COC[C@H]1Nc1ncc2cc(-c3c(F)c(OC)cc(OC)c3F)nc(-c3cnn(C)c3)c2n1 [Example 637, N-((3R,4S)-4-((6-(2,6-difluoro-3,5-dimethoxyphenyl)-8-(1-methyl-1H-py-razol-4-yl)pyrido[3,4-d]pyrimidin-2-yl)amino)tetrahydrofuran-3-yl)acryl-amide]",0.0042,0.0173,0.0101
"C=CC(=O)N[C@H]1COC[C@H]1Nc1ncc2cc(-c3c(Cl)c(OC)cc(OC)c3Cl)nc(N3CCC3)c2n1 [Example 657, N-((3R,4S)-4-((8-(azetidin-1-yl)-6-(2,6-dichloro-3,5-dimethoxyphenyl)py-rido[3,4-d]pyrimidin-2-yl)amino)tetra-hydrofuran-3-yl)acrylamide]",0.0065,0.0133,0.0096
"C=CC(=O)N[C@H]1COC[C@H]1Nc1ncc2cc(-c3c(Cl)c(OC)cc(OC)c3Cl)nc(N3CC(OC)C3)c2n1 [Example 658, N-((3R,4S)-4-((6-(2,6-dichloro-3,5-dimethoxyphenyl)-8-(3-methoxyazeti-din-1-yl)pyrido[3,4-d]pyrimidin-2-yl)amino)tetrahydrofuran-3-yl)acryl-amide]",0.0048,0.0151,0.0114
"C=CC(=O)N[C@H]1COC[C@H]1Nc1ncc2cc(-c3c(Cl)c(OC)cc(OC)c3Cl)nc(N3CC(C)(O)C3)c2n1 [Example 664, N-((3R,4S)-4-((6-(2,6-dichloro-3,5-dimethoxyphenyl)-8-(3-hydroxy-3-meth-ylazetidin-1-yl)pyrido[3,4-d]pyrimi-din-2-yl)amino)tetrahydrofuran-3-yl)acrylamide]",0.0049,0.0049,0.0037
"C=CC(=O)N[C@H]1COC[C@H]1Nc1ncc2cc(-c3c(Cl)c(OC)cc(OC)c3Cl)nc(N3CC4(CCOCC4)C3)c2n1 [Example 675, N-((3R,4S)-4-((6-(2,6-dichloro-3,5-dimethoxyphenyl)-8-(7-oxa-2-azaspiro[3.5]nonan-2-yl)pyrido[3,4-d]pyrimidin-2-yl)amino)tetrahydrofuran-3-yl)acrylamide]",0.011,0.0087,0.0062
"C=CC(=O)N[C@H]1COC[C@H]1Nc1ncc2cc(-c3c(Cl)c(OC)cc(OC)c3Cl)nc(N3CCC(OC)C3)c2n1 (stereo partly drawn) [Example 677, N-((3R,4S)-4-((6-(2,6-dichloro-3,5-dimethoxyphenyl)-8-(3-methoxypyrro-lidin-1-yl)pyrido[3,4-d]pyrimidin-2-yl)amino)tetrahydrofuran-3-yl)acryl-amide]",0.0074,0.0053,0.0037
"C=CC(=O)N[C@H]1COC[C@H]1Nc1ncc2cc(-c3c(F)c(OC)cc(OC)c3F)nc(N3CCC(OC)C3)c2n1 (stereo partly drawn) [Example 678, N-((3R,4S)-4-((6-(2,6-difluoro-3,5-di-methoxyphenyl)-8-(3-methoxypyrro-lidin-1-yl)pyrido[3,4-d]pyrimidin-2-yl)amino)tetrahydrofuran-3-yl)acryl-amide]",0.0065,0.0165,0.0133

# The remaining compounds from weak to strong by IC50 (FGFR4), led by results:
IC50 (FGFR4) [µM],IC50 [1] [µM],EC50 [1] [µM],Compound
0.0147,0.0226,0.016,"C=CC(=O)N[C@H]1COC[C@H]1Nc1ncc2cc(-c3c(Cl)c(OC)cc(OC)c3Cl)nc(N3CC4(COC4)C3)c2n1 [Example 668, N-((3R,4S)-4-((6-(2,6-dichloro-3,5-dimethoxyphenyl)-8-(2-oxa-6-aza-spiro[3.3]heptan-6-yl)pyrido[3,4-d]py-rimidin-2-yl)amino)tetrahydrofuran-3-yl)acrylamide]"
0.0145,0.0383,0.0246,"C=CC(=O)N[C@H]1COC[C@H]1Nc1ncc2cc(-c3c(Cl)c(OC)cc(OC)c3Cl)nc(NCC(C)(C)C)c2n1 [Example 462, N-((3R,4S)-4-((6-(2,6-dichloro-3,5-di-methoxyphenyl)-8-(neopentylamino)pyrido[3,4-d]pyrimidin-2-yl)amino)tetrahydrofuran-3-yl)acrylamide]"
0.008,0.0684,0.028,"C=CC(=O)N[C@H]1COC[C@H]1Nc1ncc2cc(-c3c(Cl)c(OC)cc(OC)c3Cl)nc(NC3CC3)c2n1 [Example 655, N-((3R,4S)-4-((8-(cyclopropylamino)-6-(2,6-dichloro-3,5-dimethoxyphen-yl)pyrido[3,4-d]pyrimidin-2-yl)amino)tetrahydrofuran-3-yl)acrylamide]"
0.0066,0.0243,0.018,"C=CC(=O)N[C@H]1COC[C@H]1Nc1ncc2cc(-c3c(F)c(OC)cc(OC)c3F)nc(N3CC(OC)C3)c2n1 [Example 659, N-((3R,4S)-4-((6-(2,6-difluoro-3,5-dimethoxyphenyl)-8-(3-methoxyazeti-din-1-yl)pyrido[3,4-d]pyrimidin-2-yl)a-mino)tetrahydrofuran-3-yl)acryl-amide]"
0.0057,0.0118,0.0099,"C=CC(=O)N[C@H]1COC[C@H]1Nc1ncc2cc(-c3c(Cl)c(OC)cc(OC)c3Cl)nc(N3CC(C)(OC)C3)c2n1 [Example 665, N-((3R,4S)-4-((6-(2,6-dichloro-3,5-di-methoxyphenyl)-8-(3-methoxy-3-methylazetidin-1-yl)pyrido[3,4-d]py-rimidin-2-yl)amino)tetrahydrofuran-3-yl)acrylamide]"
0.0045,0.0035,0.0023,"C=CC(=O)N[C@H]1COC[C@H]1Nc1ncc2cc(-c3c(Cl)c(OC)cc(OC)c3Cl)nc(N3CC(F)(F)C3)c2n1 [Example 663, N-((3R,4S)-4-((6-(2,6-dichloro-3,5-dimethoxyphenyl)-8-(3,3-difluoroaze-tidin-1-yl)pyrido[3,4-d]pyrimidin-2-yl)amino)tetrahydrofuran-3-yl)acryl-amide]"
0.0045,0.0046,0.0032,"C=CC(=O)N[C@H]1COC[C@H]1Nc1ncc2cc(-c3c(F)c(OC)cc(OC)c3F)nc(N3CC(C)(OC)C3)c2n1 [Example 666, N-((3R,4S)-4-((6-(2,6-difluoro-3,5-dimethoxyphenyl)-8-(3-methoxy-3-methylazetidin-1-yl)pyrido[3,4-d]pyri-midin-2-yl)amino)tetrahydrofuran-3-yl)acrylamide]"

# From US11555036B2, “FGFR4 inhibitor, preparation method therefor and pharmaceutical use thereof” (Abbisko Therapeutics Co., Ltd., priority 2016, dated 2023)
